Here are results for one compound from patent US20110071094A1, “(D)-ALLOSE INDUCING PROGRAMMED CELL DEATH IN HORMONE REFRACTORY PROSTATE CANCER LINES” (INDUSTRY-ACADEMIC COOPERATION FOUDATION, GYEONGSANG …, priority 2008, published 2011).

What all share (assay type): cell-based, human
The test system of experiment [1] is Bax mRNA. As to the kind of experiment: RT-PCR of Bax mRNA in DU145. The note with it: DU145, 72 h, 0, 20 and 40 mM; relative to reduced Bcl-2 mRNA. How it is done: To identify the relative levels of expression of Bcl-2, Bax and Caspase 3 mRNAs after 0, 20 and 40 mM of D-allose treatments for 72 h, RT-PCR was performed. DU145 cell line (1×10^6 cells in triplicate culture plates) was harvested as mentioned above and total RNA was extracted using TRIzol reagent (Invitrogen, Carlsbad, Calif., USA) following a standard laboratory protocol. The RNA purity and concentrations were determined. Then 2 μg of total RNA was reversely transcribed to single-stranded cDNA using Oligo(dT)12-18 primer (Invitrogen, Carlsbad, Calif., USA) with M-MLV reverse transcriptase (Promega, Madison, Wis., USA). For PCR reaction, 4 μl of cDNA was reacted with 20 pmol each of the forward and reverse primers (Bioneer Corporation, Seoul, South Korea), and GoTaq® Green Master Mix […] containing PCR buffer, 25 mM magnesium chloride, 10 mM dNTP mix and Taq enzyme (Promega, Madison, Wis., USA), and amplified. […] The molecular sizes of the amplified products were determined by comparison with the molecular weight marker (100 by DNAladder; Promega, Madison, Wis., USA) run parallel with the PCR products. The densities of mRNA bands were analyzed by Molecular Analyst™, version 1.4.1 (Bio-Rad, Hercules, Calif., USA).

Experiment [2] has as its system DU145 cell line. The experiment in a line: Cell viability / cell growth, MTT assay. How it is done: DU145 (human HRPC cell line, derived from a patient with brain metastasis) and PrEC (human normal prostate epithelial cell line) cell lines were obtained from Korea Cell Line Bank (KCLB, Seoul, South Korea). DU145 and PrEC cell lines were grown in triplicate culture plates containing RPMI-1640 (HyClone, Logan, Utah, USA) and Dulbecco's Modified Eagle's Medium (HyClone, Logan, Utah, USA) respectively, and kept in a humidified atmosphere containing 5% CO2 at 37° C. for 72 h. The media were supplemented with 10% heat-inactivated fetal bovine serum (HyClone, Logan, Utah, USA), 1% antibio-antimicotic solution containing 10,000 units/ml of penicillin and 10 mg/ml of streptomycin (HyClone, Logan, Utah, USA), HEPES, sodium bicarbonate, p-aminobenzoic acid and insulin (complete culture media). D-Allose was purchased from Sigma (St. Louis, Mo., USA) and dissolved at a concentration of 1 M in sterile phosphate-buffered saline (PBS), and was further sterilized by filtration. To examine the dose- and time-dependent effects, the cell lines (70-80% confluent) were treated with 0-40 mM of D-allose for up to 72 h, whereas without D-allose treated cell lines (0 mM) were considered as control. DU145 cell line was also treated with 0-40 mM of D-glucose. All the other chemicals used in the work were procured from Sigma (St. Louis, Mo., USA), unless otherwise specified.
The logarithmic growth phase of DU145 and PrEC cell lines were taken for growth assay using 3-[4,5-dimethylthiazol-2-yl]-2,5-diphenyl tetrazolium bromide (MTT). […] After incubation for the specified time at 37° C. in a humidified 5% CO2 incubator, cell viability was determined. […] To achieve solubilization of formazan crystal formed in viable cells, DMSO was added to each well, and the absorbance was recorded on a microplate reader at 595 nm wavelength. The effect of sugars on growth inhibition was assessed as percent cell viability where control cells were taken as 100% viable.
(In general: Tetrazolium dyes change colour on reduction, which living cells bring about.)

The test system of experiment [3] is Bcl-2. The experiment in a line: Western blot analysis of Bcl-2 protein in DU145. The following applies: DU145, 20 and 40 mM, 72 h. The method, then:
After 0, 20 and 40 mM of D-allose treatments for 72 h, DU145 cell line (1×10^6 cells in triplicate culture plates) was harvested into cell lysis buffer (Cell Signaling, Danvers, Mass., USA) supplemented with 1 mM PMSF. The cells were then sonicated, centrifuged and protein concentration was measured by Bradford assay with the Bio-Rad protein assay solution using bovine serum albumin (BSA) as standard. Proteins (30 μg) were separated on a 12.5% SDS-PAGE under reducing conditions and transferred onto a PVDF membrane (Santa Cruz Biotechnology, Santa Cruz, Calif., USA). Prestained protein marker, broad range: 6-175 kDa (New England Biolabs Inc., Ipswich, Mass., USA) run in parallel for detection of the molecular weights of the proteins. Membrane was blocked with 5% (w/v) skimmed milk in order to reduce non-specific binding and immunoblotting was performed using rabbit derived anti-Bcl-2, anti-Bax, anti-Caspase 3 and anti-PARP antibodies (1:500; Santa Cruz Biotechnology, Santa Cruz, Calif., USA). […] Membrane was probed with a goat derived horseradish peroxidase-conjugated anti-rabbit IgG (1:1000; Santa Cruz Biotechnology, Santa Cruz, Calif., USA), and proteins were detected by the enhanced chemiluminescence (ECL) detection system according to the vendor's protocol (Amersham Biosciences, Piscataway, N.J., USA) followed by X-ray exposure. […]
In general terms: Immunoblotting shows a protein as a band on a membrane.

In experiment [4] the test system is cyt C. As to the kind of experiment: Mitochondrial cyt C release and nuclear morphology, immunofluorescence. The following applies: DU145, 20 and 40 mM, 48 h.
Experimental: The in situ analysis of cyt C was carried out by immunofluorescence technique. […] Cyt C was detected by using mouse anti-cyt C antibody and rabbit anti-mouse FITC-labeled antibody (1:250 and 1:200, respectively; Santa Cruz Biotechnology, Santa Cruz, Calif., USA). DU145 cell line treated with FITC-labeled secondary antibody alone was considered as negative control. Subsequently, chromatin was stained with PI (1 mg/ml in PBS) for 20 min in dark and slides were mounted with Prolong Antifade reagent (Molecular Probes, Eugene, Oreg., USA). Cyt C (green) and chromatin (red) staining patterns were acquired by use of a confocal laser scanning microscope (Fluoview FV 1000, Olympus, Japan).

For `O=C[C@H](O)[C@H](O)[C@H](O)[C@H](O)CO` [D-allose], in experiment [1], the “Bax mRNA expression” value is on record as “opposite effect”. Besides, the “cell growth (MTT assay)” value in experiment [2] (DU145, 0-40 mM, compared to control) is reported as “significant dose-dependent inhibition of cell growth”. The “time dependence of cell growth inhibition (MTT assay)” value in experiment [2] (DU145, 24, 48 and 72 h) is given as “time-dependent inhibition of DU145 cell growth, which was more pronounced at 72 h post-treatment”. For the same compound, the Bcl-2 protein expression entry in experiment [3] is on record as “significantly decreased”. For the same compound, in experiment [4], the “cyt C release from mitochondria and chromatin condensation” value is “release of cyt C from mitochondria into cytosol and chromatin condensation”.
